Literature values in patent US9289392B2, “Extended release pharmaceutical composition of entacapone or salts thereof” (Wockhardt Ltd., priority 2008, dated 2016).

| SMILES | solubility in water |
| --- | --- |
| C[C@@](Cc1ccc(O)c(O)c1)(NN)C(=O)O [Carbidopa] | slightly soluble |
| N[C@@H](Cc1ccc(O)c(O)c1)C(=O)O [Levodopa, (−)-L-α-amino-β-(3,4-dihydroxybenzene) propanoic acid] | slightly soluble |
